Data as given in patent publication US8993256B2, “Fusion proteins and polynucleotide constructs to measure protein turn-over” (priority 2006, dated 2015).

Experiments:
HCV NS3 protease [1] = format: cell-based, hepatitis C virus; details: HEK293 cells grown with or without BILN-2061 (0, 1 μM, or 10 μM)
Text: For testing of the drug-regulatable epitope tag concept by immunoblotting, a construct of linear fusions of PSD-95, HCV NS3 protease flanked on both sides by cleavage sites, an HA epitope tag, and the cyan fluorescent protein (CFP) was used.
For each construct, HEK293 cells were transfected with Lipofectamine 2000, grown with or without the NS3 protease inhibitor BILN-2061 (Lamarre et al., 2003), and immunoblotted after boiling/SDS lysis with anti-PSD-95 to differentiate uncleaved and cleaved products by molecular weight.
Experiments using the constructs of the disclosure were performed in transiently transfected mammalian cells by immunoblotting.

HCV NS3 protease [2] = target: HCV NS3 protease (Hepatitis C virus genotype 1a, UniProt P27958); format: cell-based; details: TimeSTAMPt; hippocampal neurons 18 DIV, 9 DPT
Text: (§1) Hippocampal neurons were dissected from postnatal day 0 or 1 rat pups and cultured in Neurobasal medium supplemented with B27 and glutamine. For immunoblotting experiments, neurons were transfected prior to plating using the Amaxa Nucleofector protocol. For other experiments, neurons were transfected at 7-10 DIV by calcium phosphate.
(§2) To recapitulate endogenous mechanisms of mRNA localization and translation, the 5′ and 3′ untranslated regions of each gene were included in all constructs.

HCV NS3 protease [3] = target: HCV NS3 protease (Hepatitis C virus genotype 1a, UniProt P27958, T1080A); format: cell-based; details: TimeSTAMPa; hippocampal neurons 18 DIV, 9 DPT
Text: as §1, §2

[4] = target: HSV-TimeSTAMPt-HA-dCaMKII (Hepatitis C virus genotype 1a, UniProt P27958); format: in vivo, Drosophila melanogaster; details: adult flies, brains analyzed 6 hours after BILN-2061
Text: Homozyous transformed lines were established from single progeny of embryos injected with pUAST-HSV-TimeSTAMPt-HA-dCaMKII or pUAST-HSV-TimeSTAMPa-HA-dCaMKII. […] Male homozygotes with third-chromosome insertions were crossed to elav-GAL4; UAS-tubulin-GFP; + females, and the male elavGAL4/Y; UAS-tubulin-GFP/+; HSV-TimeSTAMP-HA-dCaMKII/+ progeny were used for experiments within 2 days post-eclosion.
For experiments involving HSV-TimeSTAMPt-HA-dCaMKII, flies were anesthesized by carbon dioxide, then a hole was punctured in the medial ocellus region using a glass micropipette with a 10 μm bore and a 25 nL drop of 2 mM BILN-2061 in 20% DMSO 5% Cremophor EL in Hank's buffered saline solution (HBSS) was placed over the region. […] For HSV-TimeSTAMPa-HA-dCaMKII, flies were starved for 12 hours with only water, then placed in a vial with an emulsion of 30% (w/v) yeast, 30% (v/v) glycerol, 30% (v/v) water, 5% green food coloring, 5% dimethylformamide, and 500 μM BILN-2061. […] For analysis, flies were decapitated and brains were simultaneously dissected and fixed in HBSS with 4% paraformaldehyde and 0.2% Triton X-100 for 40 minutes at room temperature. Brains were processed for immunocytochemistry by standard methods and imaged on a Zeiss LSM510 or LSM5Live confocal microscope.
Transgenic flies were generated expressing this fusion protein in all neurons.

[5] = test system: new protein synthesis in neurons; test: Dependence of TimeSTAMP tag appearance on new protein synthesis in neurons; format: cell-based, rat; details: for HA-tagged Arc appearing after incubation in 10 μM BILN for 6 hours: Arc-TimeSTAMPa-HA neurons, 7 DIV, simultaneous treatment (cycloheximide 50 μg/mL or BDNF)
Text: as §1, §2

HCV NS3 protease (Hepatitis C virus genotype 1a, UniProt P27958, T1080A), sequence (P27958 1027-1208 T1080A): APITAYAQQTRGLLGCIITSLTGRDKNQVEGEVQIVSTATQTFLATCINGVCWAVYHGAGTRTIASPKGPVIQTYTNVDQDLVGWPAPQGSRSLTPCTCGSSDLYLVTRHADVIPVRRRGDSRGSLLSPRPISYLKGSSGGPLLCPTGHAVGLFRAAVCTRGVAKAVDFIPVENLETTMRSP
HCV NS3 protease (Hepatitis C virus genotype 1a, UniProt P27958), sequence (P27958 1027-1208): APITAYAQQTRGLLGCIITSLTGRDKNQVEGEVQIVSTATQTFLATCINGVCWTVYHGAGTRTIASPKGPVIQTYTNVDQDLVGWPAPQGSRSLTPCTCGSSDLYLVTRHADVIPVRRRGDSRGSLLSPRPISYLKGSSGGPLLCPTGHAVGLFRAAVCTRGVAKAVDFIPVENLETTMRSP
HSV-TimeSTAMPt-HA-dCaMKII, sequence (P27958 1027-1208): as above

## COc1ccc2c(O[C@@H]3C[C@H]4C(=O)N[C@]5(C(=O)O)C[C@H]5/C=C\CCCCC[C@H](NC(=O)OC5CCCC5)C(=O)N4C3)cc(-c3csc(NC(C)C)n3)nc2c1 [BILN-2061]
HCV NS3 protease [1]
  Cleavage of constructs containing the NS3 domain alone without NS4A cofactor (immunoblot): inhibited
HCV NS3 protease [2]
  HA immunofluorescence induction: 121 fold
HCV NS3 protease [3]
  HA immunofluorescence induction: 20 fold
[4]
  HSV labelling for newly synthesized dCaMKII in fly brain: HSV labelling for newly synthesized dCaMKII is present in the mushroom bodies

## C[C@@H]1C[C@@H]([C@H](O)CC2CC(=O)NC(=O)C2)C(=O)[C@@H](C)C1 [cycloheximide]
[5]; 50 μg/mL cycloheximide, 18 DIV neurons, 9 DPT
  Synaptic HA staining of PSD-95-GFP-TimeSTAMPa-HA after 6 hours of BILN-2061: No staining
[5]
  HA-tagged Arc appearing after incubation in 10 μM BILN for 6 hours: blocked

B1: BDNF: growth factor used for translational induction (protein, UniProt P23560 19-247, looked up)
Neurotrophic factor BDNF …: APMKEANIRGQGGLAYPGVRTHGTLESVNGPKAGSRGLTSLADTFEHVIEELLDEDQKVRPNEENNKDADLYTSRVMLSSQVPLEPPLLFLLEEYKNYLDAANMSMRVRRHSDPARRGELSVCDSISEWVTAADKKTAVDMSGGTVTVLEKVPVSKGQLKQYFYETKCNPMGYTKEGCRGIDKRHWNSQCRTTQSYVRALTMDSKKRIGWRFIRIDTSCVCTLTIKRGR
[5]
  HA-tagged Arc appearing after incubation in 10 μM BILN for 6 hours: increased
